Ten molecules from DBAASP can be followed below.

Some test systems named below: Escherichia coli; Staphylococcus aureus; Candida albicans; Bacillus subtilis; Klebsiella pneumoniae; Escherichia coli K-12.
Test in all cases: ≥ marks a high value that may be exact or a test limit, other limits are often not marked, values filed in µg/mL are converted to µM
For assay [1], the system named is Escherichia coli ATCC 25922.
Assay [2] has as its system Candida albicans ATCC 10231.
For assay [3], the system named is Pseudomonas aeruginosa ATCC 9027.
For assay [4], the system named is Pseudomonas aeruginosa ATCC 27853.
Assay [5] relates to Staphylococcus aureus ATCC 6538.
In assay [6] the test system is Escherichia coli NCTC 10418.
Assay [7] concerns Staphylococcus aureus ATCC 25923.
Assay [8] deals with Escherichia coli DH5alpha.

Converted amounts (≈) assume the structure as drawn.

Consider `N[C@@H](CC(=O)O)C(=O)N[C@@H](CC(=O)O)C(=O)N[C@@H](CC(=O)O)C(=O)N[C@@H](Cc1ccc(O)cc1)C(=O)O` [DDDY], for which the values for the MIC in assay [1], in assay [2] and in assay [3] were 8580 µM (≈ 4520 µg/mL), 4290 µM (≈ 2260 µg/mL) and 68700 µM (≈ 36200 µg/mL), respectively.

For `CC[C@H](C)[C@H](NC(=O)[C@H](CC(C)C)NC(=O)[C@H](CC(C)C)NC(=O)[C@H](CC(=O)O)NC(=O)[C@H](CCCCN)NC(=O)[C@@H](NC(=O)[C@H](C)NC(=O)CNC(=O)[C@H](CC(C)C)NC(=O)[C@@H](NC(=O)CN)C(C)C)C(C)C)C(=O)NCC(=O)N[C@@H](C)C(=O)NCC(=O)N[C@@H](CCCCN)C(=O)N[C@@H](CO)C(=O)N[C@@H](C)C(=O)N[C@@H](C)C(=O)N[C@@H](CCC(N)=O)C(=O)N[C@@H](CO)C(=O)N[C@H](C(=O)N[C@@H](CC(C)C)C(=O)N[C@@H](CCCCN)C(=O)N[C@H](C(=O)N[C@@H](CC(C)C)C(=O)N[C@@H](CO)C(=O)N[C@H]1CSSC[C@@H](C(=O)O)NC(=O)[C@H](CC(=O)O)NC(=O)[C@H](CC(N)=O)NC(=O)[C@H](CO)NC(=O)[C@H](CC(C)C)NC(=O)[C@H](CCCCN)NC1=O)[C@@H](C)O)C(C)C` [GVLGAVKDLLIGAGKSAAQSVLKTLSCKLSNDC], the MIC in the assay on Escherichia coli was 2.52 µM (≈ 8.21 µg/mL); against Staphylococcus aureus it was 1.26 µM (≈ 4.11 µg/mL); with Candida albicans, 0.629 µM (≈ 2.05 µg/mL); in the assay on Bacillus subtilis it was 5.04 µM (≈ 16.4 µg/mL).

Turning to `CC[C@H](C)[C@H](NC(=O)[C@H](C)NC(=O)[C@H](CCCCN)NC(=O)[C@H](C)NC(=O)[C@H](CCSC)NC(=O)CNC(=O)CNC(=O)[C@H](CC(C)C)NC(=O)[C@@H](NC(=O)[C@@H](NC(=O)[C@H](CC(N)=O)NC(=O)CNC(=O)[C@H](CCSC)NC(=O)[C@H](CCCN=C(N)N)NC(=O)[C@H](CCC(=O)O)NC(=O)[C@H](CC(=O)O)NC(=O)[C@@H](NC(=O)[C@H](CCCCN)NC(=O)[C@H](CCCCN)NC(=O)[C@H](CCC(N)=O)NC(=O)[C@@H](NC(=O)[C@H](CCCCN)NC(=O)[C@H](CCC(=O)O)NC(=O)[C@H](CCC(=O)O)NC(=O)[C@H](CC(N)=O)NC(=O)[C@@H](NC(=O)[C@H](Cc1c[nH]c2ccccc12)NC(=O)CN)[C@@H](C)CC)[C@@H](C)CC)[C@@H](C)CC)[C@@H](C)O)C(C)C)C(=O)N[C@H](C(=O)N[C@@H](Cc1cnc[nH]1)C(=O)N[C@@H](CCCCN)C(=O)N[C@@H](CCSC)C(=O)N[C@@H](C)C(=O)N[C@@H](CCCCN)C(=O)N[C@@H](CC(N)=O)C(=O)N[C@@H](CCC(=O)O)C(=O)N[C@@H](Cc1ccccc1)C(=O)N[C@@H](CCC(N)=O)C(=O)N[C@H]1CSSC[C@@H]2NC(=O)[C@H](Cc3ccc(O)cc3)NC(=O)CNC(=O)[C@H](CCCCN)NC(=O)[C@H](CCC(=O)O)NC(=O)CNC(=O)[C@H](CO)NC(=O)[C@H]([C@@H](C)O)NC(=O)[C@H](CCC(N)=O)NC(=O)[C@@H]3CSSC[C@@H](C(=O)NCC(=O)N[C@H](C(=O)N4CCC[C@H]4C(=O)N[C@@H](CC(C)C)C(=O)N[C@@H](CO)C(=O)N[C@@H](Cc4ccc(O)cc4)C(=O)O)[C@@H](C)O)NC(=O)[C@H](CCCCN)NC(=O)[C@H](CSSC[C@H](NC(=O)[C@H](CC(N)=O)NC(=O)CNC(=O)[C@H](CC(C)C)NC(=O)[C@H](CCSC)NC(=O)[C@H](CC(=O)O)NC(=O)[C@H](CCSC)NC(=O)[C@H](CC(N)=O)NC(=O)[C@H](C)NC(=O)[C@H](CCSC)NC1=O)C(=O)N[C@@H](CCC(=O)O)C(=O)N[C@@H](CCCCN)C(=O)N[C@@H](Cc1cnc[nH]1)C(=O)N3)NC(=O)[C@H](CCCCN)NC(=O)[C@H]([C@@H](C)O)NC(=O)CNC(=O)[C@H](Cc1cnc[nH]1)NC2=O)C(C)C` [GWINEEKIQKKIDERMGNTVLGGMAKAIVHKMAKNEFQCMANMDMLGNCEKHCQTSGEKGYCHGTKCKCGTPLSY], the MIC against Klebsiella pneumoniae was determined as 10 µM (≈ 83.5 µg/mL); against Bacillus subtilis it was 1 µM (≈ 8.35 µg/mL).

`CC[C@H](C)[C@H](NC(=O)[C@H](CCCCN)NC(=O)[C@H](CCCCN)NC(=O)[C@H](Cc1ccccc1)NC(=O)[C@H](C)NC(=O)[C@H](CCCCN)NC(=O)[C@H](Cc1c[nH]c2ccccc12)NC(=O)[C@@H](N)CCCCN)C(=O)N[C@@H](CCC(=O)O)C(=O)N[C@@H](CCCCN)C(=O)N[C@@H](CCSC)C(=O)N[C@H](C(=O)N[C@@H](CCCN=C(N)N)C(=O)N[C@@H](CC(N)=O)C(=O)N[C@H](C(=O)N[C@@H](CCCN=C(N)N)C(=O)N[C@@H](CC(N)=O)C(=O)N[C@@H](CCCCN)C(=O)N[C@H](C(=O)N[C@H](C(=O)N[C@@H](CCCCN)C(N)=O)C(C)C)[C@@H](C)CC)[C@@H](C)CC)[C@@H](C)CC` [KWKAFKKIEKMIRNIRNKIVK]: the MIC was above 3 µM in [4], 3 µM (≈ 8.01 µg/mL) with Escherichia coli K-12 and above 12 µM in [5].

Take `CC[C@H](C)[C@H](NC(=O)[C@H](CCCN=C(N)N)NC(=O)[C@H](CCC(N)=O)NC(=O)[C@@H](NC(=O)[C@@H](NC(=O)[C@H](CCCN=C(N)N)NC(=O)[C@H](CCCCN)NC(=O)[C@H](Cc1ccccc1)NC(=O)[C@H](CC(=O)O)NC(=O)CNC(=O)[C@H](CC(C)C)NC(=O)[C@@H](N)CC(C)C)[C@@H](C)CC)C(C)C)C(=O)N[C@@H](CCCCN)C(=O)N[C@@H](CC(=O)O)C(=O)N[C@@H](Cc1ccccc1)C(N)=O` [LLGDFKRIVQRIKDF]: the MIC against Escherichia coli K-12 is at least 250 µM.

Consider `CC[C@H](C)[C@H](NC(=O)CNC(=O)[C@@H]1CCCN1C(=O)[C@@H]1CCCN1C(=O)[C@H](Cc1ccccc1)NC(=O)[C@H](Cc1ccccc1)NC(=O)[C@@H]1CCCN1C(=O)[C@H](Cc1ccccc1)NC(=O)[C@@H](N)CO)C(=O)N[C@H]1CSSC[C@@H](C(=O)O)NC(=O)[C@H](CCCN=C(N)N)NC(=O)[C@H](CCCCN)NC(=O)[C@H](CC(C)C)NC(=O)[C@H](CCCN=C(N)N)NC(=O)[C@H](CCCCN)NC1=O` [SFPFFPPGICKRLKRC], for which the MIC in assay [6] is at least 35 µM.

For `CC[C@H](C)[C@H](NC(=O)CNC(=O)[C@H](CC(N)=O)NC(=O)[C@@H](NC(=O)[C@H](C)NC(=O)[C@H](CC(N)=O)NC(=O)[C@H](CC(C)C)NC(=O)[C@H](C)NC(=O)[C@H](C)NC(=O)[C@H](CCCN=C(N)N)NC(=O)CNC(=O)[C@H](C)NC(=O)[C@H](C)NC(=O)[C@H](C)NC(=O)[C@H](C)NC(=O)[C@H](CCSC)NC(=O)[C@H](CC(=O)O)NC(=O)[C@H](CCCCN)NC(=O)[C@@H](NC(=O)[C@H](CO)NC(=O)[C@H](CO)NC(=O)[C@H](Cc1c[nH]c2ccccc12)NC(=O)[C@H](CC(C)C)NC(=O)[C@@H](N)CO)[C@@H](C)CC)C(C)C)C(=O)N[C@H](C(=O)N[C@@H](CC(N)=O)C(=O)N1CCC[C@H]1C(N)=O)C(C)C` [SLWSSIKDMAAAAGRAALNAVNGIVNP], the MIC in assay [1] was 47.5 µM (≈ 128 µg/mL); in assay [7], 190 µM (≈ 512 µg/mL); against Candida albicans it was above 190 µM; against Klebsiella pneumoniae, above 190 µM.

As for `CC[C@H](C)[C@@H]1NC(=O)[C@H](Cc2ccc(O)cc2)NC(=O)[C@@H](NC(=O)[C@H](CCCN=C(N)N)NC(=O)[C@H](CO)NC(=O)[C@@H](N)[C@@H](C)O)CSSC[C@@H](C(=O)N[C@@H](CO)C(=O)O)NC(=O)[C@H](C(C)C)NC(=O)[C@H](C(C)C)NC(=O)[C@H](CCCCN)NC(=O)[C@H](CCCN=C(N)N)NC(=O)[C@H](CCCN=C(N)N)NC(=O)[C@H](Cc2ccc(O)cc2)NC(=O)CNC1=O` [TSRCYIGYRRKVVCS], the MIC came out at 9.77 µM (≈ 17.5 µg/mL) against Escherichia coli, 19.5 µM (≈ 35 µg/mL) in the assay with Staphylococcus aureus, 4.89 µM (≈ 8.74 µg/mL) against Candida albicans and 9.77 µM (≈ 17.5 µg/mL) against Bacillus subtilis.

`CC[C@H](C)[C@H](NC(=O)[C@H](Cc1ccccc1)NC(=O)[C@@H](NC(=O)[C@H](C)NC(=O)[C@H](CCCN=C(N)N)NC(=O)[C@H](CCCCN)NC(=O)[C@H](CCCN=C(N)N)NC(=O)[C@H](CCCCN)NC(=O)[C@H](C)NC(=O)[C@H](CC(C)C)NC(=O)[C@@H](NC(=O)[C@@H](N)Cc1ccc(O)cc1)C(C)C)[C@@H](C)CC)C(=O)O` [YVLAKRKRAIFI]: the MIC in assay [4] is above 200 µM; in assay [8] it was at least 200 µM; in assay [7], above 200 µM; against Bacillus subtilis, at least 200 µM.

For `CC[C@H](C)[C@H](NC(=O)[C@H](Cc1ccccc1)NC(=O)[C@@H](NC(=O)[C@H](Cc1c[nH]c2ccccc12)NC(=O)[C@H](CCCN=C(N)N)NC(=O)[C@H](CCCCN)NC(=O)[C@H](CCCN=C(N)N)NC(=O)[C@H](CCCCN)NC(=O)[C@H](Cc1c[nH]c2ccccc12)NC(=O)[C@H](CC(C)C)NC(=O)[C@@H](NC(=O)[C@@H](N)Cc1ccc(O)cc1)C(C)C)[C@@H](C)CC)C(=O)O` [YVLWKRKRWIFI], the minimal inhibitory concentration (MIC) is 150 µM (≈ 256 µg/mL) in [4], at least 60 µM in assay [8], 40 µM (≈ 68.3 µg/mL) in [7] and 5 µM (≈ 8.54 µg/mL) in the assay with Bacillus subtilis.
